{"source": "patent US11203633B2", "about": "“Polynucleotides encoding antibodies or antigen binding fragments thereof that bind pseudomonas perv” (priority 2011, dated 2021)", "key": {"[1]": {"tested_on": "P. aeruginosa strain 6077 (O11-cytotoxic)", "experiment": "Corneal infection (ocular keratitis) model in mice", "format": "in vivo, Pseudomonas aeruginosa"}, "[2]": {"tested_on": "luminescent P. aeruginosa serogroup 011 strain (9882-80.lux)", "experiment": "OPK assay, 9882-80.lux", "format": "cell-based, Pseudomonas aeruginosa", "settings": "strain 9882-80 (O11); FIG. 2B", "experimental": "(§1) This example describes the evaluation of prioritized human IgG1 antibodies to promote OPK of P. aeruginosa. […] OPK assays were performed as described in (DiGiandomenico, A., et al., Infect Immun 72, 7012-7021 (2004)), with modifications. Briefly, assays were performed in 96-well plates using 0.025 ml of each OPK component; P. aeruginosa strains; diluted baby rabbit serum; differentiated HL-60 cells; and monoclonal antibody. In some OPK assays, luminescent P. aeruginosa strains, which were constructed as described (Choi, K. H., et al., Nat Methods 2, 443-448 (2005)), were used. Luminescent OPK assays were performed as described above but with determination of relative luciferase units (RLUs) using a Perkin Elmer ENVISION Multilabel plate reader (Perkin Elmer).\nThe ability of the WapR-004 and Cam-003 antibodies to mediate OPK activity against another clinically relevant 0-antigen serotype strain, 9882-80.lux, was evaluated."}, "[3]": {"tested_on": "Psl exopolysaccharide (P. aeruginosa PAO1 and isogenic mutants)", "experiment": "Indirect ELISA / FACS binding to PAO1 and isogenic mutants", "parameters": "species or system Pseudomonas aeruginosa", "settings": "for binding (indirect ELISA): FIG. 3A; for binding (ELISA): FIG. 3E", "text": "In addition, duplication of VH CDR3 loop sequences in the libraries (a measure of clonal enrichment during selection), was also found to be higher in the patient library, reaching 88-92%, compared to 15-25% in the naïve library at round 3 (FIG. 1D). Individual scFv phage from affinity selections were next screened by ELISA for reactivity to P. aeruginosa heterologous serotype strains (FIG. 1E). ELISA plates (Nunc; MAXISORP™) were coated with P. aeruginosa strains from overnight cultures as described (DiGiandomenico, A., et al., Infect Immun 72, 7012-7021 (2004)). Diluted antibodies were added to blocked plates for 1 hour, washed, and treated with HRP-conjugated anti-human secondary antibodies for 1 hour followed by development and analysis as described (Ulbrandt, N. D., et al., J Virol 80, 7799-7806 (2006)). The dominant species of phage obtained from whole cell selections with both libraries yielded serotype specific reactivity (data not shown).\nFor IgG expression, the VH and VL chains of selected antibodies were cloned into human IgG1 expression vectors, co-expressed in HEK293 cells, and purified by protein A affinity chromatography as described (Persic, L., et al., Gene 187, 9-18 (1997)). Human IgG1 antibodies made with the variable regions from these selected serotype independent phage were confirmed for P. aeruginosa specificity and prioritized for subsequent analysis by whole cell binding to dominant clinically relevant serotypes by FACS analysis (FIG. 1F), since this method is more stringent than ELISA. For the flow cytometry based binding assays mid-log phase P. aeruginosa strains were concentrated in PBS to an OD650 of 2.0. After incubation of antibody (10 μg/mL) and bacteria (˜1×10^7 cells) for 1 hr at 4° C. with shaking, washed cells were incubated with an ALEXA FLUOR 647® goat anti-human IgG antibody (Invitrogen, Carlsbad, Calif.) for 0.5 hr at 4° C. Washed cells were stained with BACLIGHT™ green bacterial stain as recommended (Invitrogen, Carlsbad, Calif.). Samples were run on a LSR II flow cytometer (BD Biosciences) and analyzed using BD FacsDiva (v. 6.1.3) and FlowJo (v. 9.2; TreeStar).\nThis example describes identification of the target of anti-P. aeruginosa antibodies derived from phenotypic screening. Target analysis was performed to test whether the serotype independent antibodies targeted protein or carbohydrate antigens. […] Isogenic mutants were constructed in genes responsible for 0-antigen, alginate, and LPS core biosynthesis; wbpL (O-antigen-deficient); wbpL/algD (O-antigen and alginate deficient); rmlC (O-antigen-deficient and truncated outer core); and galU (O-antigen-deficient and truncated inner core). P. aeruginosa mutants were constructed based on the allele replacement strategy described by Schweizer (Schweizer, H. P., Mol Microbiol 6, 1195-1204 (1992); Schweizer, H. D., Biotechniques 15, 831-834 (1993)). Vectors were mobilized from E. coli strain 517.1 into P. aeruginosa strain PAO1; recombinants were isolated as described (Hoang, T. T., et al., Gene 212, 77-86 (1998)). Gene deletion was confirmed by PCR. P. aeruginosa mutants were complemented with pUCP30T-based constructs harboring wild type genes. […] The rmlC and galU genes were recently shown to be required for biosynthesis of the Psl exopolysaccharide, a repeating pentasaccharide polymer consisting of D-mannose, L-rhamnose, and D-glucose. Cam-003 binding to an isogenic pslA knockout PAO1ΔpslA, was tested, as pslA is required for Psl biosynthesis (Byrd, M. S., et al., Mol Microbiol 73, 622-638 (2009)). Binding of Cam-003 to PAO1ΔpslA was abolished when tested by ELISA (FIG. 3B) and FACS (FIG. 3C), while the LPS molecule in this mutant was unaffected (FIG. 3D). Binding of Cam-003 was restored in a PAO1ΔwbpL/algD/pslA triple mutant complemented with pslA (FIG. 3E) as was the ability of Cam-003 to mediate opsonic killing to complemented PAO1ΔpslA in contrast to the mutant (FIGS. 3F and 3G). […]"}, "[4]": {"tested_on": "luminescent P. aeruginosa serogroup 05 strain (PAO1.lux)", "experiment": "Opsonophagocytic killing (OPK) assay, PAO1.lux", "format": "cell-based, Pseudomonas aeruginosa", "experimental": "as §1"}}, "data": [{"substance": "Cam-003: anti-Psl human IgG1 monoclonal antibody; VH SEQ ID NO:1, VL SEQ ID NO:2", "values": [{"measurement": "difference vs control IgG1 (pathology scores / viable CFU), Mann-Whitney U-test P", "setting": "[1]; 15 mg/kg, FIG. 8C", "value": 0.0003}, {"measurement": "difference vs control IgG1 (pathology scores / viable CFU), Mann-Whitney U-test P", "setting": "[1]; 15 mg/kg, FIG. 8D", "value": 0.0015}, {"measurement": "difference vs control IgG1 (pathology scores / viable CFU), Mann-Whitney U-test P", "setting": "[1]; 45 mg/kg, FIG. 8A", "value": 0.0001}, {"measurement": "corneal pathology and bacterial counts vs negative control-treated animals", "setting": "[1]; 6077, antibody 24 hours prior to infection, FIG. 8A-D, F-G", "value": "significantly less pathology and reduced bacterial counts in total eye homogenates"}, {"measurement": "OPK activity", "setting": "[2]", "value": "OPK activity extends to strain 9882-80 (O11)"}, {"measurement": "reactivity to LPS purified from PAO1", "setting": "[3]", "value": "not observed"}, {"measurement": "binding (indirect ELISA)", "setting": "[3]; PAO1 rmlC and galU mutants", "value": "abolished"}, {"measurement": "binding (indirect ELISA)", "setting": "[3]; PAO1 wbpL or wbpL/algD double mutant", "value": "unaffected"}, {"measurement": "binding (ELISA and FACS)", "setting": "[3]; PAO1ΔpslA, FIG. 3B-C", "value": "abolished"}, {"measurement": "binding (ELISA)", "setting": "[3]; PAO1ΔwbpL/algD/pslA triple mutant complemented with pslA", "value": "restored"}, {"measurement": "binding (ELISA)", "setting": "[3]; Pel exopolysaccharide mutant", "value": "unaffected"}, {"measurement": "OPK EC50", "setting": "[4]; FIG. 9A, unit inferred", "value": 0.06, "unit": "µg/mL"}, {"measurement": "OPK activity (killing of PAO1.lux)", "setting": "[4]; purified human IgG1 mAbs from phage panning, FIG. 2A", "value": "superior OPK activity"}]}]}
